Data from patent US20230241041A1, “LURBINECTEDIN IN THE TREATMENT OF MALIGNANT MESOTHELIOMA” (PHARMA MAR, S.A., priority 2019, published 2023).

Columns and labels:
[1] = system: progressive malignant pleural mesothelioma (MPM); assay: Phase II single-arm, multi-centric trial of lurbinectedin monotherapy: efficacy (PFS, OS, response); assay type: in vivo, human
Procedure: In order to evaluate the efficacy of lurbinectedin in the treatment of progressive malignant pleural mesothelioma (MPM), a Phase II single-arm, multi-centric, international trial was performed.
(§1) The primary endpoint was progression-free survival at 12 weeks (PFS12wks), defined as the absence of progression or death due to any cause during the first 12 weeks (±2 weeks) after registration. Secondary endpoints included progression-free survival (PFS), defined as the time from registration until radiologic progression or death due to any cause, whichever occurs first; overall survival (OS), defined as the time from registration until death due to any cause; objective response rate (ORR), defined as the proportion of patients who achieved complete (CR) or partial remission (PR) during the trial treatment; disease control rate (DCR) defined as the sum of CR, PR and stable disease (SD) at least for 12 weeks (SD≥12wks); duration of disease control, defined as the time from registration to progression or death due to any cause whichever occurs first for patients who had CR, PR or SD≥12wks; and adverse events (AE). All AEs were assessed according to NCI CTCAE v4.03. Patients lost to follow-up were censored at the last date they were known to be alive.
This trial was conducted in 6 centers in Switzerland and 3 in Italy. Subjects enrolled in this clinical trial were adult (age ≥ 18 years) patients having histologically or cytologically confirmed MPM, an Eastern Cooperative Oncology Group (ECOG) status of 0-1 and had progressed on or after one line of platinum-pemetrexed chemotherapy without being amenable to local treatment. Further inclusion criteria required an adequate hepatic, renal and bone marrow function (absolute neutrophil count ≥ 2 × 10^9 /L, platelet count ≥ 100 × 10^9 /L; aspartate aminotransferase and alanine aminotransferase ≤ 3.0 × ULN; creatinine clearance ≥ 30 mL/min/1.73).
Eligible patients could additionally have received one prior line of immunotherapy, but more than one lines of chemotherapy, including pemetrexed rechallenge, were not allowed. Further exclusion criteria covered known brain metastases or leptomeningeal disease, history of other hematologic or primary solid tumors within five years prior to registration (with the exception of curatively treated basal or squamous cell carcinoma of the skin, properly treated in situ malignant melanoma, in situ carcinoma of the uterine cervix or pT1-2 prostate cancer with Gleason score ≤6), concomitant use of anti-cancer surgery or radiotherapy (except for local pain control or pleurodesis) and adverse events Grade ≥2 derived from previous treatment.
(§2) Lurbinectedin was given every 3 weeks at a dose of 3.2 mg/m^2 as a 1-hour intravenous infusion through peripheral or central lines. Standard antiemetic prophylaxis (corticosteroids or serotonin (5-HT3) antagonists) was administered prior to chemotherapy. […] In case of third re-emergence of Grade 3-4 toxicity treatment was permanently discontinued. Specifically for leucopenia Grade 3-4 and/or febrile neutropenia there was mandatory secondary G-CSF prophylaxis together with dose reduction by one level.
(§3) Patients were followed clinically and with laboratory tests at time of chemotherapy administration and additionally with contrast enhanced CT- or PET/CT scans every 6 weeks. […] In case of treatment discontinuation for any reason, adverse events were reported for 30 days after last treatment application. For those cases where lurbinectedin was stopped without manifest progression radiology scans were performed every 8 weeks during the follow-up period otherwise patients were followed-up via telephone every 12 weeks for survival status.
A Simon two-stage design was used as presented by Simon R. (Control Clin Trials. 1989 Mar;10(1):1-10). We had set our null-hypothesis p0 at PFS12wks ≤35%, translated to a median PFS of ≤ 2 months. […]

[2] = Phase II trial of lurbinectedin monotherapy: adverse events (NCI CTCAE v4.03) and tolerability; assay type: in vivo
Text: as §1
as §2, with “Lurbinectedin was given every 3 weeks at a dose of 3.2 mg/m^2 as a 1-hour intravenous infusion through peripheral or central lines.” left out
as §3

For `COc1ccc2[nH]c3c(c2c1)CCN[C@]31CS[C@@H]2c3c(OC(C)=O)c(C)c4c(c3[C@H](COC1=O)N1[C@@H]2[C@H]2c3c(cc(C)c(OC)c3O)C[C@@H]([C@@H]1O)N2C)OCO4` (stereo in doubt) [lurbinectedin], the “patients with disease control lasting for 8 months or longer” value ([1]; 6/22 patients) was 27.3%, the “median OS” value ([1]; <6 months progression-free interval on prior pemetrexed) was 8.8 months and the “median OS” value ([1]; >=6 months progression-free interval on prior pemetrexed) was 13.3 months. The PFS12wks ([1]; additional prior immunotherapy) was 70%, the “median OS” value ([1]; additional prior immunotherapy) was 10.4 months and the “median PFS” value ([1]; additional prior immunotherapy) was 3.2 months. The DCR ([1]; all 42 patients) was 52.4%, the ORR ([1]; all 42 patients) was 4.8% and the “complete remission (CR)” value ([1]; all 42 patients) was “One”. For the same molecule, the “partial remission (PR)” value ([1]; all 42 patients) was “one”, the stable disease ([1]; all 42 patients) was 20 patients and the “PFS12wks (primary endpoint) reached” value ([1]; all patients, 22/42, 90% CI 38.7-63.5, p=0.015) was 52.4%. For the same molecule, the “PFS12wks, Kaplan-Meier method at 12 weeks” value ([1]; all patients, 90% CI 49.7-74.4) was 63.5%, the “median PFS” value ([1]; all patients, 95% CI 2.6-5.5, median follow-up 14.9 months) was 4.1 months and the “9 months PFS%” value ([1]; all patients, 95% CI 4.7-24.9) was 12.7%. For the same molecule, the “median OS” value ([1]; all patients, 95% CI 8.8-14.7) was 11.1 months, the “6 months PFS%” value ([1]; all patients, 95% CI 17.1-44.9) was 30.5% and the “12 months OS” value ([1]; all patients, 95% CI 28.1-60.3) was 44.9%. The “3 months PFS%” value ([1]; all patients, 95% CI 41.8-71.7) was 58.4%, the “6 months OS” value ([1]; all patients, 95% CI 57.7-84.6) was 73.8% and the PFS12wks ([1]; epithelioid histology) was 63.6%. For the same molecule, the “median OS” value ([1]; epithelioid histology) was 12.4 months, the “median PFS” value ([1]; epithelioid histology) was 4.1 months and the “PFS12wks reached (interim analysis)” value ([1]; first 21 patients, Simon 2-stage, 11 patients) was 52.4%. For the same molecule, the PFS12wks ([1]; non-epithelioid histology) was 62.5%, the “median OS” value ([1]; non-epithelioid histology) was 10.0 months and the “median PFS” value ([1]; non-epithelioid histology) was 3.7 months. For the same molecule, the “patients who had died at the time of analyses” value ([1]; of 42, progression 23, viral pneumonitis 1, suicide 1, heart failure 1) was 26 patients, the “median duration of disease control” value ([1]; patients with CR, PR or SD>=12wks, 95% CI 5.2-7.4) was 6.6 months and the PFS12wks ([1]; prior chemotherapy alone) was 61.4%. For the same molecule, the “median OS” value ([1]; prior chemotherapy alone) was 11.9 months, the “median PFS” value ([1]; prior chemotherapy alone) was 4.1 months and the “median PFS” value ([1]; progressed on previous platinum-pemetrexed in >=6 months) was 4.3 months. For the same molecule, the PFS12wks ([1]; progressed on previous platinum-pemetrexed in >=6 months (28 patients)) was 67.9%, the “median PFS” value ([1]; progressed on previous platinum-pemetrexed within <6 months) was 3.0 months and the PFS12wks ([1]; progressed on previous platinum-pemetrexed within <6 months (14 patients)) was 53.8%. For the same molecule, the AEs ([2]; Grade 5, N = 42) was 0 (0.0%) n (%), the “Lurbinectedin-related AEs” value ([2]; Grade 5, N = 42) was 0.0 (0.0%) n (%) and the treatment-related death ([2]; N=42) was “no treatment-related death”. The “Abdominal pain, lurbinectedin-related AE” value ([2]; human, in vivo) was 1 (2.4%) n (%), the “Alkaline phosphatase increased, lurbinectedin-related AE” value ([2]; human, in vivo) was 1 (2.4%) n (%) and the “Aspartate aminotransferase increased, lurbinectedin-related AE” value ([2]; human, in vivo) was 2 (4.8%) n (%). For the same molecule, the “Blood bilirubin increased, lurbinectedin-related AE” value ([2]; human, in vivo) was 3 (7.1%) n (%), the “Cholangitis, lurbinectedin-related AE” value ([2]; human, in vivo) was 1 (2.4%) n (%) and the “Confusion, lurbinectedin-related AE” value ([2]; human, in vivo) was 1 (2.4%) n (%). The “Cough, lurbinectedin-related AE” value ([2]; human, in vivo) was 1 (2.4%) n (%), the “Creatinine increased, lurbinectedin-related AE” value ([2]; human, in vivo) was 1 (2.4%) n (%) and the “Diarrhea, lurbinectedin-related AE” value ([2]; human, in vivo) was 3 (7.1%) n (%). The “Dizziness, lurbinectedin-related AE” value ([2]; human, in vivo) was 2 (4.8%) n (%), the “Dry skin, lurbinectedin-related AE” value ([2]; human, in vivo) was 2 (4.8%) n (%) and the “Dysgeusia, lurbinectedin-related AE” value ([2]; human, in vivo) was 1 (2.4%) n (%). The “Dyspepsia, lurbinectedin-related AE” value ([2]; human, in vivo) was 1 (2.4%) n (%), the “Dysphagia, lurbinectedin-related AE” value ([2]; human, in vivo) was 1 (2.4%) n (%) and the “Edema limbs, lurbinectedin-related AE” value ([2]; human, in vivo) was 1 (2.4%) n (%). For the same molecule, the “Febrile neutropenia, lurbinectedin-related AE” value ([2]; human, in vivo) was 4 (9.5%) n (%), the “Flu like symptoms, lurbinectedin-related AE” value ([2]; human, in vivo) was 1 (2.4%) n (%) and the “Halitosis, lurbinectedin-related AE” value ([2]; human, in vivo) was 1 (2.4%) n (%). For the same molecule, the “Headache, lurbinectedin-related AE” value ([2]; human, in vivo) was 1 (2.4%) n (%), the “Hypertension, lurbinectedin-related AE” value ([2]; human, in vivo) was 1 (2.4%) n (%) and the “Hypomagnesemia, lurbinectedin-related AE” value ([2]; human, in vivo) was 5 (11.9%) n (%). For the same molecule, the “Infection of unknown origin, lurbinectedin-related AE” value ([2]; human, in vivo) was 1 (2.4%) n (%), the “Infections with unknown origine, lurbinectedin-related AE” value ([2]; human, in vivo) was 1 (2.4%) n (%) and the “Insomnia, lurbinectedin-related AE” value ([2]; human, in vivo) was 1 (2.4%) n (%). For the same molecule, the “Lung infection, lurbinectedin-related AE” value ([2]; human, in vivo) was 1 (2.4%) n (%), the “Memory impairment, lurbinectedin-related AE” value ([2]; human, in vivo) was 1 (2.4%) n (%) and the “Pancytopenia, lurbinectedin-related AE” value ([2]; human, in vivo) was 1 (2.4%) n (%). The “Productive cough, lurbinectedin-related AE” value ([2]; human, in vivo) was 1 (2.4%) n (%), the “Skin infection, lurbinectedin-related AE” value ([2]; human, in vivo) was 1 (2.4%) n (%) and the “Superficial thrombophlebitis, lurbinectedin-related AE” value ([2]; human, in vivo) was 1 (2.4%) n (%). The “Urea increased, lurbinectedin-related AE” value ([2]; human, in vivo) was 1 (2.4%) n (%), the “Vertigo, lurbinectedin-related AE” value ([2]; human, in vivo) was 1 (2.4%) n (%) and the “Watering eyes, lurbinectedin-related AE” value ([2]; human, in vivo) was 1 (2.4%) n (%). For the same molecule, the “Weight loss, lurbinectedin-related AE” value ([2]; human, in vivo) was 2 (4.8%) n (%), the “White blood cell decreased, lurbinectedin-related AE” value ([2]; human, in vivo) was 3 (7.1%) n (%) and the “all other Grade 3-4 lurbinectedin-related toxicities” value ([2]; human, in vivo) was less than 10%. The “dose reductions for which AEs were the reason” value ([2]; human, in vivo) was 91.7%, the “fatigue, lurbinectedin-related AE Grade 3-4” value ([2]; human, in vivo) was 16.7% and the febrile neutropenia ([2]; human, in vivo) was 9.5%. The “herpes zoster, lurbinectedin-related AE” value ([2]; human, in vivo) was 1 (2.4%) n (%), the “neutropenia, lurbinectedin-related AE Grade 3-4” value ([2]; human, in vivo) was 23.8% and the “patients showing no lurbinectedin-related AEs” value ([2]; human, in vivo) was “AE: adverse event; ^1: 4 patients (9.5%) showed no lurbinectedin-related AEs”. The “patients with at least one adverse event (AE) of any grade” value ([2]; human, in vivo) was 100%, the “patients with at least one dose reduction” value ([2]; human, in vivo) was 28.6% and the “patients with lurbinectedin-related AEs Grade 3-4” value ([2]; human, in vivo) was 47.6%. The “patients with treatment delayed at least once” value ([2]; human, in vivo) was 50%, the “patients with treatment related AEs (any grade)” value ([2]; human, in vivo) was 90.5% and the “patients with two dose reductions” value ([2]; human, in vivo) was 2/42. The “treatment delay caused by AEs” value ([2]; human, in vivo) was 26.2%, the “Mucositis oral, lurbinectedin-related AE” value ([2]; human, in vivo, po) was 1 (2.4%) n (%) and the “treatment discontinuation due to toxicity” value ([2]; in vivo) was “no treatment discontinuation due to toxicity”.

B1: G-CSF: granulocyte colony-stimulating factor, given as prophylaxis for leucopenia/febrile neutropenia (protein, UniProt P09919 31-207, looked up)
Granulocyte …: TPLGPASSLPQSFLLKCLEQVRKIQGDGAALQEKLVSECATYKLCHPEELVLLGHSLGIPWAPLSSCPSQALQLAGCLSQLHSGLFLYQGLLQALEGISPELGPTLDTLQLDVADFATTIWQQMEELGMAPALQPTQGAMPAFASAFQRRAGGVLVASHLQSFLEVSYRVLRHLAQP
For B1, the “incidence of grade 3-4 neutropenia” value ([2]; G-CSF given in patients on lurbinectedin) was “diminished”.
